Among the data in patent US7655669B2, “Pyrimidineamide derivatives and the use thereof” (Novartis AG, priority 2002, dated 2010) are IC50 values, retold here.

As a reminder, the IC50 is the concentration at which inhibition is half-maximal. A low value points to greater potency.

The target of test [1] is T1, p210 Bcr-Abl (Homo sapiens, UniProt P00519).
T1 construct: expressed in transfected cells; host or cells: murine myeloid progenitor cell line 32Dcl3 (32D-bcr/abl), from J. Griffin; the other entry of the earlier key: BCR (P11274, Breakpoint cluster region protein)
The test is described as follows: Test for activity against Bcr-Abl (Bcr-Abl phosphorylation ELISA in 32D-bcr/abl cells). The class given is cell-based. The conditions noted are these: expressed as a range within which individual IC50 measurements fall. The text has this:
Test for activity against Bcr-Abl. The murine myeloid progenitor cell line 32Dcl3 transfected with the p210 Bcr-Abl expression vector pGDp210Bcr/Abl (32D-bcr/abl) was obtained from J. Griffin (Dana Faber Cancer Institute, Boston, Mass., USA). The cells express the fusion Bcr-Abl protein with a constitutively active Abl kinase and proliferate growth factor independent. […] After thawing, the cells are used during maximally 10-12 passages for the experiments.
For cellular assays, compounds are dissolved in DMSO and diluted with complete medium to yield a starting concentration of 10 μM followed by preparation of serial 3-fold dilutions in complete medium. 200,000 32D-Bcr/Abl cells in 50 μL complete medium are seeded per well in 96 well round bottom tissue culture plates. 50 μL per well of serial 3-fold dilutions of the test compound are added to the cells in triplicates. Untreated cells are used as control. The compound is incubated together with the cells for 90 min at 37° C., 5% CO2, followed by centrifugation of the tissue culture plates at 1300 rpm (Beckman GPR centrifuge) and removal of the supernatants by careful aspiration taking care not to remove any of the pelleted cells. The cell pellets are lysed by addition of 150 μL lysis buffer (50 mM Tris/HCl, pH 7.4, 150 mM sodium chloride, 5 mM EDTA, 1 mM EGTA, 1% NP-40, 2 mM sodium ortho-vanadate, 1 mM PMSF, 50 μg/mL aprotinin and 80 μg/mL leupeptin) and either used immediately for the ELISA or stored frozen in the plates at −20° C. until usage.
After washing 3 times with 200 μL/well PBS containing 0.05% Tween20 (PBST) and 0.5% TopBlock (Juro), residual protein binding sites are blocked with 200 μL/well PBST, 3% TopBlock for 4 h at room temperature followed by incubation with 50 μL lysates of untreated or compound-treated cells (20 μg total protein per well) for 3-4 h at 4° C. After 3 washings, 50 μL/well anti-phosphotyrosine Ab PY20(AP) labeled with alkaline phosphatase (Zymed) diluted to 0.2 μg/mL in blocking buffer is added and incubated over night (4° C.). For all incubation steps the plates are covered with plate sealers (Costar). Finally, the plates are washed another three times with washing buffer and once with deionized water before addition of 90 μL/well of the AP-substrate CDPStar RTU with Emerald II. The plates, now sealed with Packard TopSeal™-A plate sealers, are incubated for 45 min at room temperature in the dark and luminescence is quantified by measuring counts per second (CPS) with a Packard Top Count Microplate Scintillation Counter (Top Count).
The difference between the ELISA-readout (CPS) obtained for with the lysates of the untreated 32D-Bcr/Abl cells and the readout for the assay-background (all components, but without cell lysate) is calculated and taken as 100% reflecting the constitutively phosphorylated Bcr-Abl protein present in these cells. The activity of the compound on the Bcr-Abl kinase activity is expressed as percent reduction of the Bcr-Abl phosphorylation. The values for the IC50 and IC90 are determined from the dose response curves by graphical extrapolation.
In general terms: ELISA stands for enzyme-linked immunosorbent assay.

Test [2] deals with T2, c-Abl protein tyrosine kinase (Homo sapiens, UniProt P00519).
T2 construct: The His-tagged kinase domain of c-Abl is cloned and expressed in the baculovirus/Sf9 system; His; made in house; host or cells: baculovirus/Sf9
T2 sequence (P00519 242-493 limits assumed): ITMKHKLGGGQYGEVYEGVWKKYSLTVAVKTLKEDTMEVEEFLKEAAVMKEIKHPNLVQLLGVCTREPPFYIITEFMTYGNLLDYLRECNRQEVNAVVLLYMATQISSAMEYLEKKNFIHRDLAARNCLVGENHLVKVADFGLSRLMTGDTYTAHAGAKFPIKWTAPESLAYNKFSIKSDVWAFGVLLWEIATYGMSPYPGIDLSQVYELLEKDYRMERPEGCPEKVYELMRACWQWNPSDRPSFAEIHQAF
The test is described as follows: Test for activity against c-Abl protein tyrosine kinase (filter binding assay). Format: biochemical. Particulars: expressed as a range within which individual IC50 measurements fall. The method, then:
Test for activity against c-Abl protein tyrosine kinase. […] The assay contains: c-Abl kinase (50 ng), 20 mM Tris-HCl, pH 7.5, 10 mM MgCl2, 10 μM Na3VO4, 1 mM DTT and 0.06 μCi/assay [γ^33P]-ATP (5 μM ATP) using 30 μg/mL poly-Ala,Glu,Lys,Tyr-6:2:5:1 (Poly-AEKY, Sigma P1152) in the presence of 1% DMSO, total volume of 30 μL. Reactions are terminated by adding 10 μL of 250 mM EDTA, and 30 μL of the reaction mixture is transferred onto Immobilon-PVDF membrane (Millipore, Bedford, Mass., USA) previously soaked for 5 min with methanol, rinsed with water, then soaked for 5 min with 0.5% H3PO4 and mounted on vacuum manifold with disconnected vacuum source. After spotting all samples, vacuum is connected and each well rinsed with 200 μL 0.5% H3PO4. Membranes are removed and washed on a shaker with 0.5% H3PO4 (4 times) and once with ethanol. Membranes are counted after drying at ambient temperature, mounting in Packard TopCount 96-well frame, and addition of 10 μL/well of Microscint™ (Packard).

T1 sequence (P00519 28-1130 limits assumed): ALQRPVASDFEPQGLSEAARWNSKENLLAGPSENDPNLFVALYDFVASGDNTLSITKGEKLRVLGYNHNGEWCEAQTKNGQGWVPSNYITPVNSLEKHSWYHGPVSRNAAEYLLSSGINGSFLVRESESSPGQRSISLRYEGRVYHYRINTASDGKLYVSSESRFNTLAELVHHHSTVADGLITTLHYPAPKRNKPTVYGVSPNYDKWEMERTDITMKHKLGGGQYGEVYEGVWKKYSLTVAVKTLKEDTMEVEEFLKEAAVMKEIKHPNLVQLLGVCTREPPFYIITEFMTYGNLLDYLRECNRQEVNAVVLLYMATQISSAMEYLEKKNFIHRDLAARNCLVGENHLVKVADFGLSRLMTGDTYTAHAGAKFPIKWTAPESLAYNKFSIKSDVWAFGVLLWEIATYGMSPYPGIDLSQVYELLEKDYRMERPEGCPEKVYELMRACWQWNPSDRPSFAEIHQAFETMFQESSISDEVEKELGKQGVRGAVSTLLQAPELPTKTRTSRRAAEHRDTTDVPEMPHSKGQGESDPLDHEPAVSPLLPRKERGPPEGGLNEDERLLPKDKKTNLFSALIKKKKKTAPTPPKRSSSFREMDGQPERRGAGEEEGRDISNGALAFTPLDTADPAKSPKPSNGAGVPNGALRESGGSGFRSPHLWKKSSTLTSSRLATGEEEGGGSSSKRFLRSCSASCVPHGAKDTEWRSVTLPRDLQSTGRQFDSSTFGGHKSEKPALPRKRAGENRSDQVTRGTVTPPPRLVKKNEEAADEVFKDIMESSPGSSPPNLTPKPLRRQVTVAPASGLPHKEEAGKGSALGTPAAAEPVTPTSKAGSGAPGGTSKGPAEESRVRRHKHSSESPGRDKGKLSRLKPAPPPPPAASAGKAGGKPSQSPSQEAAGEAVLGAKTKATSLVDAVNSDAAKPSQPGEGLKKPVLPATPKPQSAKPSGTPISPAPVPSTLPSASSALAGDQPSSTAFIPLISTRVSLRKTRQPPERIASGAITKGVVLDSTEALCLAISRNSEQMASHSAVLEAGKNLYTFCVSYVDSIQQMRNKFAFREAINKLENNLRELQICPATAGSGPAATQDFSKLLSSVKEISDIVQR

With `CCN(CC)c1ccc(C(=O)Nc2ccc(C)c(Nc3nccc(-c4cccnc4)n3)c2)cc1C(F)(F)F` [Example 1, 4-Diethylamino-N-[4-methyl-3-[[4-(3-pyridinyl)-2-pyrimidinyl]amino]phenyl]-3-(trifluoromethyl)-benzamide], the results for the IC50 in test [1] and in test [2] were 0.2 to 0.5 µM and 0.05 to 0.1 µM, respectively. Consider `Cc1ccc(NC(=O)c2ccc(N3CCCC3)c(C(F)(F)F)c2)cc1Nc1nccc(-c2cccnc2)n1` [Example 2, N-[4-Methyl-3-[[4-(3-pyridinyl)-2-pyrimidinyl]amino]phenyl]-4-(1-pyrrolidinyl)-3-(trifluoromethyl)-benzamide], for which the IC50 in test [1] is 0.1 to 0.3 µM; in test [2] it was 0.01 to 0.06 µM. Taken in the same sequence, the figures for `Cc1ccc(NC(=O)c2ccc(N3CCOCC3)c(C(F)(F)F)c2)cc1Nc1nccc(-c2cccnc2)n1` [Example 3, N-[4-Methyl-3-[[4-(3-pyridinyl)-2-pyrimidinyl]amino]phenyl]-4-(4-morpholinyl)-3 (trifluoromethyl)-benzamide] were 0.02 to 0.1 µM and 0.04 to 0.1 µM.

Take `Cc1ccc(NC(=O)c2ccc(N3CCCCC3)c(C(F)(F)F)c2)cc1Nc1nccc(-c2cccnc2)n1` [Example 4, N-[4-Methyl-3-[[4-(3-pyridinyl)-2-pyrimidinyl]amino]phenyl]-4-(1-piperidinyl)-3-(trifluoromethyl)-benzamide]: the IC50 lay in the range of 0.08 to 0.2 µM in test [1] and 0.06 to 0.11 µM in test [2]. Taken in the same sequence, the figures for `Cc1ccc(NC(=O)c2ccc(N3CCN(C)CC3)c(C(F)(F)F)c2)cc1Nc1nccc(-c2cccnc2)n1` [Example 5, 4-(4-Methyl-1-piperazinyl)-N-[4-methyl-3-[[4-(3-pyridinyl)-2-pyrimidinyl]amino]phenyl]-3-(trifluoromethyl)-benzamide] were 0.03 to 0.1 µM and 0.005 to 0.05 µM. Taken in the same sequence, the figures for `Cc1ccc(NC(=O)c2ccc(-n3ccnc3)c(C(F)(F)F)c2)cc1Nc1nccc(-c2cccnc2)n1` [Example 6, 4-(1H-Imidazol-1-yl)-N-[4-methyl-3-[[4-(3-pyridinyl)-2-pyrimidinyl]amino]phenyl]-3-(trifluoromethyl)-benzamide] were 0.01 to 0.05 µM and 0.005 to 0.02 µM. Taken in the same sequence, the figures for `Cc1ccc(NC(=O)c2ccc(-n3ccnc3C)c(C(F)(F)F)c2)cc1Nc1nccc(-c2cccnc2)n1` [Example 7, 4-(2-Methyl-1H-imidazol-1-yl)-N-[4-methyl-3-[[4-(3-pyridinyl)-2-pyrimidinyl]amino]phenyl]-3-(trifluoromethyl)-benzamide] were 0.01 to 0.05 µM and 0.005 to 0.02 µM.

With `Cc1cn(-c2ccc(C(=O)Nc3ccc(C)c(Nc4nccc(-c5cccnc5)n4)c3)cc2C(F)(F)F)cn1` [Example 8, 4-(4-Methyl-1H-imidazol-1-yl)-N-[4-methyl-3-[[4-(3-pyridinyl)-2-pyrimidinyl]amino]phenyl]-3-(trifluoromethyl)-benzamide], the IC50 in test [1] was 0.01 to 0.05 µM; in test [2], 0.005 to 0.02 µM.

`Cc1cn(-c2ccc(C(=O)Nc3ccc(C)c(Nc4nccc(-c5cccnc5)n4)c3)cc2C(F)(F)F)c(C)n1` [Example 9, 4-(2,4-Dimethyl-1H-imidazol-1-yl)-N-[4-methyl-3-[[4-(3-pyridinyl)-2-pyrimidinyl]amino]phenyl]-3-(trifluoromethyl)-benzamide]: the IC50 was 0.02 to 0.08 µM in test [1] and 0.005 to 0.02 µM in test [2]. The like results for `Cc1ccc(NC(=O)c2cc(-n3ccnc3)cc(C(F)(F)F)c2)cc1Nc1nccc(-c2cccnc2)n1` [Example 10, 3-(1H-Imidazol-1-yl)-N-[4-methyl-3-[[4-(3-pyridinyl)-2-pyrimidinyl]amino]phenyl]-5-(trifluoromethyl)-benzamide] were, in that order, 0.01 to 0.05 µM and 0.005 to 0.02 µM.

In the case of `Cc1ccc(NC(=O)c2cc(-n3ccnc3C)cc(C(F)(F)F)c2)cc1Nc1nccc(-c2cccnc2)n1` [Example 11, 3-(2-Methyl-1H-imidazol-1-yl)-N-[4-methyl-3-[[4-(3-pyridinyl)-2-pyrimidinyl]amino]phenyl]-5-(trifluoromethyl)-benzamide], the IC50 in test [1] is 0.01 to 0.05 µM; in test [2], 0.005 to 0.02 µM.

As to `Cc1cn(-c2cc(C(=O)Nc3ccc(C)c(Nc4nccc(-c5cccnc5)n4)c3)cc(C(F)(F)F)c2)cn1` [Example 12, 3-(4-Methyl-1H-imidazol-1-yl)-N-[4-methyl-3-[4-(3-pyridinyl)-2-pyrimidinyl]amino]phenyl-5-(trifluoromethyl)-benzamide], the IC50 in test [1] was in the range of 0.01 to 0.05 µM; in test [2], 0.005 to 0.02 µM.

For the compound `Cc1ccc(NC(=O)c2cc(N3CCOCC3)cc(C(F)(F)F)c2)cc1Nc1nccc(-c2cccnc2)n1` [Example 13, N-[4-Methyl-3-[[4-(3-pyridinyl)-2-pyrimidinyl]amino]phenyl]-3-(4-morpholinyl)-5-(trifluoromethyl)-benzamide], the IC50 was in the range of 0.02 to 0.08 µM in test [1] and 0.005 to 0.02 µM in test [2]. Taken in the same sequence, the figures for `Cc1ccc(NC(=O)c2cc(N3CCN(C)CC3)cc(C(F)(F)F)c2)cc1Nc1nccc(-c2cccnc2)n1` [Example 14, 3-(4-Methyl-1-piperazinyl)-N-[4-methyl-3-[[4-(3-pyridinyl)-2-pyrimidinyl]amino]phenyl]-5-(trifluoromethyl)-benzamide] were 0.03 to 0.18 µM and 0.005 to 0.02 µM.

Turning to `Cc1ccc(NC(=O)c2ccc(N(C)CCN(C)C)c(C(F)(F)F)c2)cc1Nc1nccc(-c2cccnc2)n1` [Example 15, 4-[[2-(Dimethylamino)ethyl]methylamino]-N-[4-methyl-3-[[4-(3-pyridinyl)-2-Pyrimidinyl]amino]phenyl]-3-(trifluoromethyl)-benzamide], the IC50 was in the range of 0.05 to 0.2 µM in test [1] and 0.005 to 0.02 µM in test [2]. The like results for `Cc1ccc(NC(=O)c2ccc(N(C)C3CCN(C)CC3)c(C(F)(F)F)c2)cc1Nc1nccc(-c2cccnc2)n1` [Example 16, 4-[Methyl-(1-methyl-4-piperidinyl)amino]-N-[4-methyl-3-[[4-(3-Pyridinyl)-2-pyrimidinyl]amino]phenyl]-3-(trifluoromethyl)-benzamide] were, in that order, 0.05 to 0.2 µM and 0.005 to 0.02 µM. Taken in the same sequence, the figures for `CCNc1cc(C(=O)Nc2ccc(C)c(Nc3nccc(-c4cccnc4)n3)c2)cc(C(F)(F)F)c1` [Example 17] were 0.02 to 0.06 µM and 0.01 to 0.07 µM. Compound `CC(=O)Nc1cc(C(=O)Nc2ccc(C)c(Nc3nccc(-c4cccnc4)n3)c2)cc(C(F)(F)F)c1` [Example 18, 3-Acetylamino-N-[4-methyl-3-[[4-(3-pyridinyl)-2-pyrimidinyl]amino]phenyl]-5-(trifluoromethyl)-benzamide] gave an IC50 in test [1] of 0.013 µM.
